The numbers were not newly measured in US8835429B2, “Pyrimidine compounds, their use as mTOR kinase and Pl3 kinase inhibitors, and their syntheses” (Wyeth LLC, priority 2009, dated 2014), which cites them from elsewhere.

Series [1] deals with acute lymphoblastic leukemia. The following applies: in vivo; cited from earlier work.
Series [2] has as its system human tumor xenograft models. To be noted: chronic oral administration, 400 mg/kg; A549, PC-3, WiDr; cited from earlier work.
The next series concerns the target mTOR (Homo sapiens, UniProt P42345). The following applies: read-out: mTOR IC50; mTOR complexes (PI103), mTOR enzyme (ZSTK474); cited from earlier work.
The next series has as its target hSMG-1 (Homo sapiens, UniProt Q96Q15). To be noted: read-out: hSMG-1 kinase activity IC50; cited from earlier work.

Chain of hSMG-1 (Q96Q15 whole entry): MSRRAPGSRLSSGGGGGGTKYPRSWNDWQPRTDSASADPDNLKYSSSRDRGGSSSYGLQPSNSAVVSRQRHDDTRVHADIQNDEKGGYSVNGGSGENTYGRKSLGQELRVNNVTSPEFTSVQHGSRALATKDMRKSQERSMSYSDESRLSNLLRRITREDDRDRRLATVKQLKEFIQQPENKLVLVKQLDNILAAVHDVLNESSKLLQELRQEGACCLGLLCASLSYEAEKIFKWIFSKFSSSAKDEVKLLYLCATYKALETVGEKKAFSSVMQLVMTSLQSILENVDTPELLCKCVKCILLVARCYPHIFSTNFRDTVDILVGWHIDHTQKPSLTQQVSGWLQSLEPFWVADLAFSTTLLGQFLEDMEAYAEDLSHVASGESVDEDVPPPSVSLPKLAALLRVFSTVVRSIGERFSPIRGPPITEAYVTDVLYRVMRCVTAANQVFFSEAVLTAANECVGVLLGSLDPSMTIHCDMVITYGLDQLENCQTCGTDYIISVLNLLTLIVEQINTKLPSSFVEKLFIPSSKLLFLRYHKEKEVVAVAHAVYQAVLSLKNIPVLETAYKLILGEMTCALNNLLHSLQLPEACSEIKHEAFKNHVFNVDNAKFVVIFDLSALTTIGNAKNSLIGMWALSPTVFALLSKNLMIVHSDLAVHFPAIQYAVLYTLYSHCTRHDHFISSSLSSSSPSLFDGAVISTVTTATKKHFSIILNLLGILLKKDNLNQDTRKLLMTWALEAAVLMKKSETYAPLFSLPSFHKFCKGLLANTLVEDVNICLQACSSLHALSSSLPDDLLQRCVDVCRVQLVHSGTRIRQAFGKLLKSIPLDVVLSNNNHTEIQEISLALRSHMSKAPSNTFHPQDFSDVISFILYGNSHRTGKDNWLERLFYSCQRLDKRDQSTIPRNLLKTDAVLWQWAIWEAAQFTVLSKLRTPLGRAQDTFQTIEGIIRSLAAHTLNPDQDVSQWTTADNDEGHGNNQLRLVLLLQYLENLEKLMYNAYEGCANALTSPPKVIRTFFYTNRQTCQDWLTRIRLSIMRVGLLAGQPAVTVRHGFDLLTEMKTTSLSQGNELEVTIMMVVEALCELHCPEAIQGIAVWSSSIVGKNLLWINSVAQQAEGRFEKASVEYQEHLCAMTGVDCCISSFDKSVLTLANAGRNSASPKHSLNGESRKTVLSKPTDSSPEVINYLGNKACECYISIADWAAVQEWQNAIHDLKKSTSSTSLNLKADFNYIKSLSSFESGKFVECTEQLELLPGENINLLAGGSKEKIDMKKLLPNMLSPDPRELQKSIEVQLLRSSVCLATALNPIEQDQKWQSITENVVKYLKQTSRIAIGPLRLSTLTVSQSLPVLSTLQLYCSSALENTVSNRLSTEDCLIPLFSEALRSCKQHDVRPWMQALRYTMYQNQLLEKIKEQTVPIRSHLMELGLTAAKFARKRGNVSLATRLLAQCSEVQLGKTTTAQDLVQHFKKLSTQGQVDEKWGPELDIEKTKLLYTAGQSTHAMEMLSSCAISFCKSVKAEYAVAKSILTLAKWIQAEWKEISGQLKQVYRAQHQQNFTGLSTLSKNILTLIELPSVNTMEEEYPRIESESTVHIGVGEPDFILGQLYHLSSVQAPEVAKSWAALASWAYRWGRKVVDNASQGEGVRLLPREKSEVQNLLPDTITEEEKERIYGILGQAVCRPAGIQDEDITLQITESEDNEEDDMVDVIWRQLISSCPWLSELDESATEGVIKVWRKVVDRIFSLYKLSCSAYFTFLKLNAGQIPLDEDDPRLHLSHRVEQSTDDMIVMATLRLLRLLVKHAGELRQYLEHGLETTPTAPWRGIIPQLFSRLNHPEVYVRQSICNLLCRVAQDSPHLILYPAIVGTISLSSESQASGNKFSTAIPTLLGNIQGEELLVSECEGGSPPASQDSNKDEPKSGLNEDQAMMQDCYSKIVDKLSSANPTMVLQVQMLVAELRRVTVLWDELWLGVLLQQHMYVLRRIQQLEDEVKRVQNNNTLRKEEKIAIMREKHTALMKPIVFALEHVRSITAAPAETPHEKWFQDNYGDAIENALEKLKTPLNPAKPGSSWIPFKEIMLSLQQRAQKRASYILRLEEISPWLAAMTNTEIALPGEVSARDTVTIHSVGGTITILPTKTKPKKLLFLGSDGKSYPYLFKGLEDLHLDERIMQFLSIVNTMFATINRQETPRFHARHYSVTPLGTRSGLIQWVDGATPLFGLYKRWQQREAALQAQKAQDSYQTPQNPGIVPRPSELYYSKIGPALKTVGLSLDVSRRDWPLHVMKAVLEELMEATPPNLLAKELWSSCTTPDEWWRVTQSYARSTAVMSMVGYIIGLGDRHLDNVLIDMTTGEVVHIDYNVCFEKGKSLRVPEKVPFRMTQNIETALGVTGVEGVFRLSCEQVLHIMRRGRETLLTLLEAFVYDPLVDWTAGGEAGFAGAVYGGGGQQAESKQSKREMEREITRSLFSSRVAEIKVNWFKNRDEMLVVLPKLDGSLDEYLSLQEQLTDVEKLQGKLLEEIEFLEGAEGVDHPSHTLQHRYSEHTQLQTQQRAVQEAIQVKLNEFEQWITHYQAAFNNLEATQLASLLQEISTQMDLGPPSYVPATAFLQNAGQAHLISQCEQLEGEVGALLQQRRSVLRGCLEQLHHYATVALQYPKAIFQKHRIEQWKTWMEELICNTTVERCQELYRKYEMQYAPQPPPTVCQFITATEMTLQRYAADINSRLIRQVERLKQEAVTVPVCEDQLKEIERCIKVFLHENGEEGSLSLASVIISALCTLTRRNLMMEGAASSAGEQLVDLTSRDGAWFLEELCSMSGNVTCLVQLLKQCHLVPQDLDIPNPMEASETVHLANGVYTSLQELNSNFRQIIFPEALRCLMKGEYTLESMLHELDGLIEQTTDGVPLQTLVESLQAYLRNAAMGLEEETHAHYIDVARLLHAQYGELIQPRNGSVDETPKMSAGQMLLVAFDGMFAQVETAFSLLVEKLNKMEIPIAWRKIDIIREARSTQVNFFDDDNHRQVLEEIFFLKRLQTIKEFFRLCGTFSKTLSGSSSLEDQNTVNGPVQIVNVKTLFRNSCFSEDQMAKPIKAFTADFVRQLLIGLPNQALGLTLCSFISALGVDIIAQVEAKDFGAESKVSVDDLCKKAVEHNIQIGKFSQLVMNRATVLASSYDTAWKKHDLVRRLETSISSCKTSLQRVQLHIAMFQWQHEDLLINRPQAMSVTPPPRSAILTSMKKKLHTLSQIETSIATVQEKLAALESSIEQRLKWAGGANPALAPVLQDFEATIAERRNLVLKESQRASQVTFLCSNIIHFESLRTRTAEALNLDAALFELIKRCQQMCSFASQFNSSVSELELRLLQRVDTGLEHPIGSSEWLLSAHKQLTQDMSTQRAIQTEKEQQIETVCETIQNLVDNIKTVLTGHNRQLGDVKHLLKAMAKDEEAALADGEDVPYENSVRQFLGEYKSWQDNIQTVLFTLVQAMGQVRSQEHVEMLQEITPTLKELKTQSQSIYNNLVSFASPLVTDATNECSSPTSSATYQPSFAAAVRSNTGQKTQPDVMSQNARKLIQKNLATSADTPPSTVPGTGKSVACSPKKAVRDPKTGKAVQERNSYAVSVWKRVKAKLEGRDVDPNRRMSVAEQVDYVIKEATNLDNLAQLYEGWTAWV

For `CO[C@H]1C[C@@H]2CC[C@@H](C)[C@@](O)(O2)C(=O)C(=O)N2CCCC[C@H]2C(=O)O[C@H]([C@H](C)C[C@@H]2CC[C@@H](OC(=O)C(C)(CO)CO)[C@H](OC)C2)CC(=O)[C@H](C)/C=C(\C)[C@@H](O)[C@@H](OC)C(=O)[C@H](C)C[C@H](C)/C=C/C=C/C=C/1C` [Torisel], the “activity in NOS/SCID xenograft mouse model of acute lymphoblastic leukemia” value in series [1] is “active”.

In the case of `FC(F)c1nc2ccccc2n1-c1nc(N2CCOCC2)nc(N2CCOCC2)n1` [ZSTK474, 2-(2-difluoromethylbenzoimidazol-1-yl)-4,6-dimorpholino-1,3,5-triazine], the “tumor growth in mouse human xenograft cancer models” value in series [2] is reported as “completely inhibited growth”. Further, the IC50 at mTOR is over 10000 nM.

On to `COC[C@H]1OC(=O)c2coc3c2[C@@]1(C)C1=C(C3=O)[C@@H]2CCC(=O)[C@@]2(C)C[C@H]1OC(C)=O` [Wortmannin], for which the IC50 at hSMG-1 was about 60 nM.
